# Assay results reported in ChEMBL document CHEMBL1770132, “The discovery of high affinity agonists of GPR109a with reduced serum shift and improved ADME properties” (Bioorg Med Chem Lett, 2011).
# Key:
# Format in all cases: ADME, organism-based
# [1] = Half life in plasma of C57BL/6 mouse
# [2] = Bioavailability in C57BL/6 mouse at 1 mg/kg, iv and 2 mg/kg, po; conditions: in vivo
# [3] = Plasma clearance in C57BL/6 mouse
# [4] = Bioavailability in Sprague-Dawley rat at 1 mg/kg, iv and 2 mg/kg, po; conditions: in vivo
# [5] = Plasma clearance in Sprague-Dawley rat
# [6] = Half life in Sprague-Dawley rat; conditions: in vivo
# [7] = Half life in plasma of C57BL/6 mouse at 1 mg/kg, iv and 2 mg/kg, po
SMILES,half-life [1],bioavailability [2],clearance [3],bioavailability [4],clearance [5],half-life [6],half-life [7]
C[C@@H]1CCC(C(=O)O)=C(NC(=O)CCc2nc(-c3ccc(F)cn3)no2)C1,4.7 h,54%,3.3 mL/min/kg,–,–,–,–
C[C@@H]1CCC(C(=O)O)=C(NC(=O)[C@@H](N)Cc2nc(-c3ccc(F)cn3)no2)C1,5.6 h,100%,1.7 mL/min/kg,81%,0.7 mL/min/kg,5.5 h,–
O=C(CCc1ccc(-c2ccc(O)cc2)cc1)Nc1ccccc1C(=O)O,–,–,–,–,–,–,2.4 h
N[C@@H](Cc1nc(-c2ccc(O)cn2)no1)C(=O)NC1=C(C(=O)O)CCCC1,4.5 h,9%,2.5 mL/min/kg,2%,0.7 mL/min/kg,2.3 h,–
O=C(CCc1nc(-c2ccc(O)cn2)no1)NC1=C(C(=O)O)CCCC1,1.4 h,–,–,8.1%,1 mL/min/kg,2.2 h,–
C[C@@H]1CCC(C(=O)O)=C(NC(=O)[C@@H](N)Cc2nc(-c3ccc(O)cn3)no2)C1,2.64 h,7.5%,9.22 mL/min/kg,–,–,–,–
